Test results reported in patent US10405547B2, “Substituted cyclic amides as herbicides” (FMC Corporation, priority 2015, dated 2019).

Legend:
Format in all cases: in vivo
Details in all cases: 0 to 100 scale (0 no effect, 100 complete control)
[1] = test system: barnyardgrass (Echinochloa crus-galli); experiment: Test A preemergence, barnyardgrass
Excerpt: (§1) Test A Seeds of plant species selected from barnyardgrass (Echinochloa crus-galli), kochia (Kochia scoparia), ragweed (common ragweed, Ambrosia elatior), ryegrass, Italian (Lolium multiflorum), foxtail, giant (Setaria faberii), and pigweed (Amaranthus retroflexus), were planted into a blend of loam soil and sand and treated preemergence with a directed soil spray using test chemicals formulated in a non-phytotoxic solvent mixture which included a surfactant.
(§2) At the same time, plants selected from these weed species and also blackgrass (Alopecurus myosuroides), galium (catchweed bedstraw, Galium aparine), wheat (Triticum aestivum), and corn (Zea mays) were planted in pots containing the same blend of loam soil and sand and treated with postemergence applications of test chemicals formulated in the same manner. Plants ranged in height from 2 to 10 cm and were in the one- to two-leaf stage for the postemergence treatment. Treated plants and untreated controls were maintained in a greenhouse for approximately 10 days, after which time all treated plants were compared to untreated controls and visually evaluated for injury. Plant response ratings, summarized in Table A, are based on a 0 to 100 scale where 0 is no effect and 100 is complete control. A dash (-) response means no test result.

kochia (Kochia scoparia) [2] = experiment: Test A preemergence, kochia
Excerpt: as §1, §2

[3] = test system: ragweed (common ragweed, Ambrosia elatior); experiment: Test A preemergence, ragweed
Excerpt: as §1, §2

[4] = test system: ryegrass, Italian (Lolium multiflorum); experiment: Test A preemergence, Italian ryegrass
Excerpt: as §1, §2

[5] = test system: foxtail, giant (Setaria faberii); experiment: Test A preemergence, giant foxtail
Excerpt: as §1, §2

[6] = test system: pigweed (Amaranthus retroflexus); experiment: Test A preemergence, pigweed
Excerpt: as §1, §2

[7] = test system: barnyardgrass (Echinochloa crus-galli); experiment: Test A postemergence, barnyardgrass
Excerpt: as §1, §2

kochia (Kochia scoparia) [8] = experiment: Test A postemergence, kochia
Excerpt: as §1, §2

[9] = test system: ragweed (common ragweed, Ambrosia elatior); experiment: Test A postemergence, ragweed
Excerpt: as §1, §2

[10] = test system: ryegrass, Italian (Lolium multiflorum); experiment: Test A postemergence, Italian ryegrass
Excerpt: as §1, §2

[11] = test system: foxtail, giant (Setaria faberii); experiment: Test A postemergence, giant foxtail
Excerpt: as §1, §2

[12] = test system: pigweed (Amaranthus retroflexus); experiment: Test A postemergence, pigweed
Excerpt: as §1, §2

[13] = test system: blackgrass (Alopecurus myosuroides); experiment: Test A postemergence, blackgrass
Excerpt: as §1, §2

[14] = test system: galium (catchweed bedstraw, Galium aparine); experiment: Test A postemergence, galium
Excerpt: as §1, §2

[15] = test system: wheat (Triticum aestivum); experiment: Test A postemergence, wheat
Excerpt: as §1, §2

corn (Zea mays) = experiment: Test A postemergence, corn
Excerpt: as §1, §2

[16] = 125 g ai/ha, visual injury, approximately 10 days
[17] = 500 g ai/ha, visual injury, approximately 10 days

| Structure (SMILES) | Plant response rating, Barnyardgrass ([1]; 125 g ai/ha) | Plant response rating, Barnyardgrass ([1]; 500 g ai/ha) | Plant response rating, Kochia (kochia (Kochia scoparia) [2]; 125 g ai/ha) | Plant response rating, Kochia (kochia (Kochia scoparia) [2]; 500 g ai/ha) | Plant response rating, Ragweed ([3]; 125 g ai/ha) | Plant response rating, Ragweed ([3]; 500 g ai/ha) | Plant response rating, Ryegrass, Italian ([4]; 125 g ai/ha) | Plant response rating, Ryegrass, Italian ([4]; 500 g ai/ha) | Plant response rating, Foxtail, Giant ([5]; 125 g ai/ha) | Plant response rating, Pigweed ([6]; 125 g ai/ha) | Plant response rating, Barnyardgrass [7, 16] | Plant response rating, Kochia (kochia (Kochia scoparia) [8]; [16]) | Plant response rating, Ragweed [9, 16] | Plant response rating, Ryegrass, Italian [10, 16] | Plant response rating, Foxtail, Giant [11, 16] | Plant response rating, Pigweed [12, 16] | Plant response rating, Blackgrass [13, 16] | Plant response rating, Galium [14, 16] | Plant response rating, Wheat [15, 16] | Plant response rating, Corn (corn (Zea mays); [16]) | other results |
| --- | --- | --- | --- | --- | --- | --- | --- | --- | --- | --- | --- | --- | --- | --- | --- | --- | --- | --- | --- | --- | --- |
| O=C1NCC(c2cccc(COc3ccccc3)c2)C1C(=O)Nc1ccccc1F (stereo not drawn) [Compound 19] | 30 | 70 | 0 | 40 | 0 | 0 | 0 | 0 | 30 | 0 | 20 | 0 | 0 | 0 | 20 | 0 | 0 | 0 | 0 | 0 | Plant response rating, Foxtail, Giant ([5]; 500 g ai/ha): 80; Plant response rating, Pigweed ([6]; 500 g ai/ha): 0; Plant response rating, Barnyardgrass [7, 17]: 50; Plant response rating, Kochia (kochia (Kochia scoparia) [8]; [17]): 0; Plant response rating, Ragweed [9, 17]: 0; Plant response rating, Ryegrass, Italian [10, 17]: 0; Plant response rating, Foxtail, Giant [11, 17]: 40; Plant response rating, Pigweed [12, 17]: 0; Plant response rating, Blackgrass [13, 17]: 0; Plant response rating, Galium [14, 17]: 0; Plant response rating, Wheat [15, 17]: 0; Plant response rating, Corn (corn (Zea mays); [17]): 0 |
| O=C1NCC(c2cccc(COc3ccccc3)c2)C1C(=O)Nc1cccc(F)c1F (stereo not drawn) [Compound 21] | 0 | 40 | 0 | 20 | 0 | 0 | 0 | 0 | 20 | 0 | 20 | 0 | 0 | 0 | 30 | 0 | 0 | 0 | 0 | 0 | Plant response rating, Foxtail, Giant ([5]; 500 g ai/ha): 60; Plant response rating, Pigweed ([6]; 500 g ai/ha): 0; Plant response rating, Barnyardgrass [7, 17]: 20; Plant response rating, Kochia (kochia (Kochia scoparia) [8]; [17]): 0; Plant response rating, Ragweed [9, 17]: 0; Plant response rating, Ryegrass, Italian [10, 17]: 0; Plant response rating, Foxtail, Giant [11, 17]: 30; Plant response rating, Pigweed [12, 17]: 0; Plant response rating, Blackgrass [13, 17]: 0; Plant response rating, Galium [14, 17]: 0; Plant response rating, Wheat [15, 17]: 0; Plant response rating, Corn (corn (Zea mays); [17]): 0 |
| O=C1NCC(c2cccc(COc3ccccc3)c2)C1C(=O)Nc1ccccc1Cl (stereo not drawn) [Compound 18] | 0 | 0 | 0 | 0 | 0 | 0 | 0 | 0 | 0 | 0 | 0 | 0 | 0 | 0 | 0 | 0 | 0 | 0 | 0 | 0 | Plant response rating, Foxtail, Giant ([5]; 500 g ai/ha): 20; Plant response rating, Pigweed ([6]; 500 g ai/ha): 0; Plant response rating, Barnyardgrass [7, 17]: 20; Plant response rating, Kochia (kochia (Kochia scoparia) [8]; [17]): 0; Plant response rating, Ragweed [9, 17]: 0; Plant response rating, Ryegrass, Italian [10, 17]: 0; Plant response rating, Foxtail, Giant [11, 17]: 0; Plant response rating, Pigweed [12, 17]: 0; Plant response rating, Blackgrass [13, 17]: 0; Plant response rating, Galium [14, 17]: 0; Plant response rating, Wheat [15, 17]: 0; Plant response rating, Corn (corn (Zea mays); [17]): 0 |
| CC1(COc2cccc(C3CNC(=O)C3C(=O)Nc3cccc(F)c3F)c2)COC1 (stereo not drawn) [Compound 13] | 0 | 80 | 0 | 0 | 0 | 0 | 0 | 0 | 80 | 0 | 0 | 0 | 0 | 0 | 40 | 0 | 0 | 0 | 0 | 0 | Plant response rating, Foxtail, Giant ([5]; 500 g ai/ha): 90; Plant response rating, Pigweed ([6]; 500 g ai/ha): 0; Plant response rating, Barnyardgrass [7, 17]: 60; Plant response rating, Kochia (kochia (Kochia scoparia) [8]; [17]): 20; Plant response rating, Ragweed [9, 17]: 0; Plant response rating, Ryegrass, Italian [10, 17]: 30; Plant response rating, Foxtail, Giant [11, 17]: 70; Plant response rating, Pigweed [12, 17]: 0; Plant response rating, Blackgrass [13, 17]: 20; Plant response rating, Galium [14, 17]: 40; Plant response rating, Wheat [15, 17]: 0; Plant response rating, Corn (corn (Zea mays); [17]): 0 |
| O=C1NCC(c2cccc(Oc3ncc(F)cc3F)c2)C1C(=O)Nc1cccc(F)c1F (single isomer, unassigned) [Compound 71] | 70 | – | 30 | – | 0 | – | 0 | – | 90 | 80 | 70 | 20 | 30 | 0 | 70 | 50 | 0 | 50 | 0 | 20 | Plant response rating, Barnyardgrass ([1]; 31 g ai/ha): 0; Plant response rating, Kochia (kochia (Kochia scoparia) [2]; 31 g ai/ha): 0; Plant response rating, Ragweed ([3]; 31 g ai/ha): 0; Plant response rating, Ryegrass, Italian ([4]; 31 g ai/ha): 0; Plant response rating, Foxtail, Giant ([5]; 31 g ai/ha): 70; Plant response rating, Pigweed ([6]; 31 g ai/ha): 20; Plant response rating, Barnyardgrass ([7]; 31 g ai/ha): 30; Plant response rating, Kochia (kochia (Kochia scoparia) [8]; 31 g ai/ha): 0; Plant response rating, Ragweed ([9]; 31 g ai/ha): 0; Plant response rating, Ryegrass, Italian ([10]; 31 g ai/ha): 0; Plant response rating, Foxtail, Giant ([11]; 31 g ai/ha): 20; Plant response rating, Pigweed ([12]; 31 g ai/ha): 0; Plant response rating, Blackgrass ([13]; 31 g ai/ha): 0; Plant response rating, Galium ([14]; 31 g ai/ha): 30; Plant response rating, Wheat ([15]; 31 g ai/ha): 0; Plant response rating, Corn (corn (Zea mays); 31 g ai/ha): 0 |
| O=C1NCC(c2cccc(Cn3cccn3)c2)C1C(=O)Nc1ccccc1Cl (stereo not drawn) [Compound 29] | 0 | 40 | 0 | 0 | 0 | 0 | 0 | 0 | 0 | 0 | 0 | 0 | 0 | 0 | 0 | 0 | 0 | 0 | 0 | 0 | Plant response rating, Foxtail, Giant ([5]; 500 g ai/ha): 40; Plant response rating, Pigweed ([6]; 500 g ai/ha): 0; Plant response rating, Barnyardgrass [7, 17]: 20; Plant response rating, Kochia (kochia (Kochia scoparia) [8]; [17]): 0; Plant response rating, Ragweed [9, 17]: 0; Plant response rating, Ryegrass, Italian [10, 17]: 0; Plant response rating, Foxtail, Giant [11, 17]: 20; Plant response rating, Pigweed [12, 17]: 0; Plant response rating, Blackgrass [13, 17]: 0; Plant response rating, Galium [14, 17]: 0; Plant response rating, Wheat [15, 17]: 0; Plant response rating, Corn (corn (Zea mays); [17]): 0 |
